Data reported in patent US20250314641A1, “OBLIQUE LINE SCANNER SYSTEMS AND METHODS FOR HIGH THROUGHPUT SINGLE MOLECULE TRACKING IN LIVING CELLS” (EIKON THERAPEUTICS, INC., priority 2022, published 2025).

Tested on: Halo-PCNA labeled U2OS cells
Assay: Cell cycle phase assignment by machine learning model in Halo-PCNA U2OS cells
Assay type: cell-based
Details: 2 mM Thymidine (S-phase block) or 10 mM RO-3306 (G2-M block)
Protocol: FIGS. 20A-20F illustrate that OLS can be applied to capture the inter and intracellular heterogeneity of single protein dynamics. FIG. 20A depicts the analysis of sources of variance in SMT for KEAP1 measured under either OLS or HILO illumination. The contribution of cell to cell variation is 17-32 fold greater than that of FOV level or well to well variances, respectively. FIG. 20B depicts representative images of Halo-PCNA labeled cells treated with 2 mM Thymidine or 10 mM RO-3306 (top). Cell cycle prediction from a machine learning (ML) model used to color cell by cycle phase (bottom). FIG. 20C depicts the quantification of the fraction of cells in each cell phase in response to cycle block treatments in FIG. 20B. The following number of cells were analyzed for each condition: 34,067 for DMSO, 3,831 for RO-3306 and 6,044 for thymidine. […]
Time-lapse microscopy was conducted on Halo-PCNA labeled with 50 nM JFX650, to achieve near-saturating labeling, for 12 hours at 12 frames per hour (FIG. 21A). […] When cells in each cell phase were analyzed separately, it became apparent that the slow-moving population of PCNA was exclusively found in cell predicted to be in S-phase and that there was a marked decrease in the fast-moving population (FIG. 20E). […]
Cell cycle as provided above can be automatically determined using an image (e.g., an image of JF549-labeled PCNA). […]

SMILES	fraction of cells assigned to cell cycle phases
O=C1NC(=NCc2cccs2)S/C1=C\c1ccc2ncccc2c1 [RO-3306]	expected enrichment in the fraction of cells assigned to the respective cell phases
Cc1cn([C@H]2C[C@H](O)[C@@H](CO)O2)c(=O)[nH]c1=O [thymidine]	expected enrichment in the fraction of cells assigned to the respective cell phases
